Source: patent US20250145639A1, “MUTANT KRAS MODULATORS AND USES THEREOF” (NEWAVE PHARMACEUTICAL INC., priority 2021, published 2025)
pIC50: −log10 of the molar value.

Key:
HIS-KRAS (G12V) = HIS-KRAS (G12V) (Homo sapiens, UniProt P01116, G12V); test: KRas G12V binding assay (TR-FRET, SOS1-mediated BODIPY FL GTP nucleotide exchange); conditions: GDP-loaded HIS-KRAS (G12V) 3 nM, 1 hour pre-incubation with compound, 4 hours with SOS1 ExD and BODIPY FL GTP at 25° C
Description: Biological Example 3: KRas G12V Binding Assay
HIS-KRAS (G12V) was diluted to 5 uM in EDTA buffer (20 mM HEPES, pH 7.4, 50 mM NaCl, 10 mM EDTA, 0.01% (v/v) Tween-20) and incubated for 30 min at 25° C. The EDTA pretreated HIS-KRAS (G12V) was diluted to 12 nM in assay buffer (25 mM HEPES, pH 7.4, 120 mM NaCl, 5 mM MgCl 2, 1 mM DTT, 0.01% (v/v) Tween 20, 0.1% (w/v) BSA) containing 120 nM GDP (Sigma) and MAb Anti 6HIS—Tb cryptate Gold (Cisbio) and incubated for 1 hour at 25° C. to prepare GDP-loaded HIS-KRAS (G12V). The GDP-loaded HIS-KRAS (G12V) was pre-incubation with diluted compounds in a 384-well plate (Greiner) for 1 hour, then purified SOS1 ExD (Flag tag, aa 564-1049) and BODIPY™ FL GTP (Invitrogen) were added to the assay wells (Final concentration: 3 nM HIS-KRAS (G12V), 2 uM SOS1 ExD, 80 nM BODIPY™ FL GTP, 21 ng/mL MAb Anti 6HIS—Tb cryptate Gold) and incubated for 4 hours at 25° C. TR-FRET signals were then read on Tecan Spark multimode microplate reader. The parameters were F486: Excitation 340 (35) nm, Emission 486 (10) nm, Lag time 100 μs, Integration time 200 μs; F515: Excitation 340 (35) nm, Emission 515 (10) nm, Lag time 100 μs, Integration time 200 μs. TR-FRET ratios for each individual wells were calculated by equation: TR-FRET ratio=(Signal F515/Signal F486)*10000. Then the data were analyzed using a 4-parameter logistic model to calculate IC50 values. The following table lists the IC50 values of certain compounds of the invention.

[1] = target: T1, HIS-KRAS (G12C, aa 2-185) (Homo sapiens, UniProt P01116, G12C); test: KRas G12C binding assay (TR-FRET, SOS1-mediated BODIPY FL GTP nucleotide exchange); conditions: GDP-loaded HIS-KRAS (G12C) 3 nM, 1 hour pre-incubation with compound, 4 hours with SOS1 ExD and BODIPY FL GTP at 25° C
T1 construct: HIS-KRAS (G12C, aa 2-185, Sino biological); purchased Sino biological
Description: Biological Example 1: KRas G12C Binding Assay
HIS-KRAS (G12C, aa 2-185, Sino biological) was diluted to 5 uM in EDTA buffer (20 mM HEPES, pH 7.4, 50 mM NaCl, 10 mM EDTA, 0.01% (v/v) Tween-20) and incubated for 30 min at 25° C. The EDTA pretreated HIS-KRAS (G12C) was diluted to 12 nM in assay buffer (25 mM HEPES, pH 7.4, 120 mM NaCl, 5 mM MgCl 2, 1 mM DTT, 0.01% (v/v) Tween 20, 0.1% (w/v) BSA) containing 120 nM GDP (Sigma) and MAb Anti 6HIS—Tb cryptate Gold (Cisbio) and incubated for 1 hour at 25° C. to prepare GDP-loaded HIS-KRAS (G12C). The GDP-loaded HIS-KRAS (G12C) was pre-incubation with diluted compounds in a 384-well plate (Greiner) for 1 hour, then purified SOS1 ExD (Flag tag, aa 564-1049) and BODIPY™ FL GTP (Invitrogen) were added to the assay wells (Final concentration: 3 nM HIS-KRAS (G12C), 2 uM SOS1 ExD, 80 nM BODIPY™ FL GTP, 21 ng/mL MAb Anti 6HIS—Tb cryptate Gold) and incubated for 4 hours at 25° C. TR-FRET signals were then read on Tecan Spark multimode microplate reader. The parameters were F486: Excitation 340 (35) nm, Emission 486 (10) nm, Lag time 100 μs, Integration time 200 μs; F515: Excitation 340 (35) nm, Emission 515 (10) nm, Lag time 100 μs, Integration time 200 μs. TR-FRET ratios for each individual wells were calculated by equation: TR-FRET ratio=(Signal F515/Signal F486)*10000. Then the data were analyzed using a 4-parameter logistic model to calculate IC50 values. The following table lists the IC50 values of certain compounds of the invention.

[2] = target: T2, GDP-loaded, histidine-tagged, truncated (1-169) KRAS G12C (Homo sapiens, UniProt P01116, G12C); test: KRas G12C in vitro covalent MS-based assay; type: binding; conditions: KRAS protein 2 uM, denaturing SEC-MS intact mass
T2 construct: histidine-tagged, truncated (1-169) KRAS proteins; His
Description: Biological Example 2: KRas G12C In Vitro Covalent MS-Based Assay
GDP-loaded, histidine-tagged, truncated (1-169) KRAS proteins (G12C, WT, G13D, as indicated) at 2 uM final concentration were incubated with the test compounds at the doses and time points indicated in a buffer containing 20 mmol/L HEPES pH 7.5, 150 mmol/L NaCl, 1 mmol/L MgCl 2, and 1 mmol/L DTT. Reactions were quenched by adding formic acid to 0.2%. Samples were buffer exchanged and analyzed by denaturing SEC-MS (Orbitrap Eclipse), Mobile phase: 30% ACN, 0.1% formic acid, 0.02% TFA. Raw data were analyzed by charge state deconvolution with BioPharma Finder 4.1 Intact Mass, ReSpect and Sliding Window algorithms. The masses were calculated via software for KRAS_G12C theoretical sequence and experimental compounds.

HIS-KRAS (G12V), sequence (P01116 1-188 isoform P01116-2 G12V): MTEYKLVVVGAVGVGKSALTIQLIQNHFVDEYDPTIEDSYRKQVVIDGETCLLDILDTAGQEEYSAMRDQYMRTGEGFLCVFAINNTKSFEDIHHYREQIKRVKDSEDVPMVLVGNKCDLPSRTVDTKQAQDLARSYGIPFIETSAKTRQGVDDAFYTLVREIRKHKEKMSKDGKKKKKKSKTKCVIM
T1 sequence (P01116 2-185 isoform P01116-2 G12C): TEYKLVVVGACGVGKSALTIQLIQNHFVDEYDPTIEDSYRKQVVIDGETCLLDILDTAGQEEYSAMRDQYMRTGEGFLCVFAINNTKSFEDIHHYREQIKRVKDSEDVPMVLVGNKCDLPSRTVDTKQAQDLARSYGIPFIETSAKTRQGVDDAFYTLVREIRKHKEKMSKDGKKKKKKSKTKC
T2 sequence (P01116 1-169 isoform P01116-2 G12C): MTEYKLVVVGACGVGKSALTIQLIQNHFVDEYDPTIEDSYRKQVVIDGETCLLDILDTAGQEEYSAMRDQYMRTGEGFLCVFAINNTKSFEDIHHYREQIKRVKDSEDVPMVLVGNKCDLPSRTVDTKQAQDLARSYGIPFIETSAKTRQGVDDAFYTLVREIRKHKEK

## C#Cc1c(F)ccc2cc(O)cc(-c3ncc4c(N5C[C@H]6CC[C@@H](C5)N6C(=O)C=C)nc(OCC56CCCN5CCC6)nc4c3F)c12 [Example 5, 1-((1R,5S)-3-(7-(8-ethynyl-7-fluoro-3-hydroxynaphthalen-1-yl)-8-fluoro-2-((tetrahydro-1H-pyrrolizin-7a(5H)-yl)methoxy)pyrido[4,3-d]pyrimidin-4-yl)-3,8-diazabicyclo[3.2.1]octan-8-yl)prop-2-en-1-one]
HIS-KRAS (G12V)
  pIC50: 9.72
[1]
  pIC50: 9.43
[2]
  Binding Model: Covalent binding

## C#Cc1c(F)ccc2cc(O)cc(-c3ncc4c(N5CCCC[C@H](NC(=O)C=C)C5)nc(OCC56CCCN5CCC6)nc4c3F)c12 [Example 9, N-[(3S)-1-[7-(8-ethynyl-7-fluoro-3-hydroxynaphthalen-1-yl)-8-fluoro-2-(hexahydropyrrolizin-7a-ylmethoxy)pyrido[4,3-d]pyrimidin-4-yl]azepan-3-yl]prop-2-enamide]
HIS-KRAS (G12V)
  pIC50: 8.50
[1]
  pIC50: 8.19
[2]
  Binding Model: Covalent binding
